pIC50: −log10 of the molar value.
How the values were obtained:
[1] = tested on: IGROV1 xenograft; assay type: in vivo, mice
Method: To evaluate the potency of And-1 inhibitors in vivo, IGROV1 or MCF7 cells were subcutaneously implanted into nude mice to form ovarian or breast tumors, respectively. In brief, 5-6 week-old female BALB/c athymic nude mice (CByJ.Cg-Foxn1nu/J, weighting 20-25 grams) were inoculated subcutaneously by injecting the OC cells, cisplatin resistant OC cells or breast cancer cells suspended in 100 μl ice-cold Matrigel/PBS (1:1, V:V; 5×10^6/mouse) into the dorsal flank of each mouse. When the average tumor volume reached 100-150 mm^3, the mice were randomized into subsequent experiment groups. For tumors treated with CH3 only, CH3 was given at 0 mg/kg, 20 mg/kg and 40 mg/kg via intraperitoneal injection twice a week for three weeks. […] The relative tumor volumes were calculated using the formula: a×(b^2)/2, for which a and b represented the longest and shortest diameters, respectively. During the drug treatment, the tumor volume and body weight were measured. Tumor samples were collected 4 days after final administration of the drug.

[2] = target: T1, And-1 (Homo sapiens, UniProt O75717); assay: cellular thermal shift assay; assay type: binding; set-up: endogenous in cells; host or cells: IGROV1 CR; details: cells incubated 8 hours, compared to DMSO
T1 sequence (O75717 1-1129): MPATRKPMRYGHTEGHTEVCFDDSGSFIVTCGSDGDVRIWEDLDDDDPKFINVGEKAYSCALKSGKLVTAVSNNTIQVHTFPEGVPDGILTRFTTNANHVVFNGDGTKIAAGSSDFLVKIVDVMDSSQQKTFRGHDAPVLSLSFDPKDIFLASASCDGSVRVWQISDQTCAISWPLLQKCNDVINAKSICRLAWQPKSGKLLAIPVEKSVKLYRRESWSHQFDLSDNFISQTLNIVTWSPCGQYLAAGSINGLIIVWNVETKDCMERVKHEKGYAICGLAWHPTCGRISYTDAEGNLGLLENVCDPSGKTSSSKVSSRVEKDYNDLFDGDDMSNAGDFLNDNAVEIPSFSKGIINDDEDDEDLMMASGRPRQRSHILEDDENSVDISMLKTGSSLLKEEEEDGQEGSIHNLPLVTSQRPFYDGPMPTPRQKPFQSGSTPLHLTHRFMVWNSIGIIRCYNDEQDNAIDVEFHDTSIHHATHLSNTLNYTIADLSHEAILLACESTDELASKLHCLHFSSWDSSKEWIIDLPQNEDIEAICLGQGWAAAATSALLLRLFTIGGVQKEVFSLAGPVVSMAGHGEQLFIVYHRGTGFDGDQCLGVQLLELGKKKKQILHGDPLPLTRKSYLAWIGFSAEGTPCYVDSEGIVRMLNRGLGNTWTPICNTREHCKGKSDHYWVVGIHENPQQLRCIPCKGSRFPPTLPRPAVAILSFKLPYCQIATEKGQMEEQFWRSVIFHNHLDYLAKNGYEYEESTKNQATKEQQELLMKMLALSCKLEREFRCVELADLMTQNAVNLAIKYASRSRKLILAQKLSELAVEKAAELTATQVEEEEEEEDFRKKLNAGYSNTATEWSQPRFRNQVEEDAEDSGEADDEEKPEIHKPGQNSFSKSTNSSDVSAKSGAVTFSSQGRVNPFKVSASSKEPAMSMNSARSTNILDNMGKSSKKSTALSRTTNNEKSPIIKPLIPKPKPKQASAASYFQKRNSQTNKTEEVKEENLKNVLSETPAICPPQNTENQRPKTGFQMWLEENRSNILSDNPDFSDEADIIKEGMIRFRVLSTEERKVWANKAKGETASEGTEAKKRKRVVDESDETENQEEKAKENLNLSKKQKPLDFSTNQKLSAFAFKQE
Method: To explore whether And-1 inhibitors directly bind to And-1, cellular thermal shift assays were performed in which a small molecule binds to a protein resulting in thermal stabilization of the protein. Briefly, cells were incubated with MG132 (10 μM), DHS, CH3, CH10 or DMSO for 8 hours. After washing with ice-cold PBS (suppled with Protease Inhibitor Cocktail), cells were aliquoted into PCR tubes (100 μL each) and then incubated at different temperatures (from 25° C. to 71° C.) for 4 minutes. After the cells were frozen and thawed twice using liquid nitrogen, proteins were isolated from the cells after centrifugation and incubated at 70° C. for 10 minutes for analysis by western blotting.

[3] = target: T1, And-1; assay: immunoblot analysis of And-1 expression in IGROV1 cells; assay type: cell-based; set-up: endogenous in cells; host or cells: IGROV1 CR
Method: The high IC50 of resveratrol compromises its potential clinical application; therefore, resveratrol was used as a lead compound to screen 12 analogs of resveratrol for potent compounds that can inhibit And-1 (FIG. 14). […] To perform immunoblot analyses, cells were first treated with increasing concentrations of the 12 analogs. After treatment, the cells were harvested and then lysed with RIPA buffer protease inhibitor and phosphatase inhibitor cocktail. Protein concentration was determined by the BCA protein assay. Equal amounts of whole cell lysates were separated on sodium dodecyl sulfate polyacrylamide gel electrophoresis (SDS-PAGE) and transferred onto nitrocellulose membranes. Membranes were then incubated in blocking solution (5% non-fat milk in 20 mM TRIS-HCl, 150 mM NaCl, 0.1% Tween-20) (TBST), followed by incubation with the indicated antibodies at 4° C. overnight. The membranes were then washed in TBST and incubated with HRP-conjugated secondary antibodies for 1 hour at room temperature (21° C.±2° C.). Antibody detection was performed with an enhanced chemiluminescence reaction.

[4] = tested on: IGROV1 CR cells; assay: clonogenic assay, combination with cisplatin; assay type: cell-based, human
Method: Clonogenic survival assays were also performed. In brief, cells were seeded in 6-well dishes at a density of 500 cells per dish then treated with the cisplatin at the indicated concentrations (See FIGS. 23 and 24). Cells were then kept in the incubator for 10-14 days to allow colony formation. Colonies were visualized by crystal violet staining. Colonies with >50 cells were counted.

[5] = target: T1, And-1; assay: immunoprecipitation of And-1 and anti-ubiquitin immunoblot in IGROV1 cells; assay type: cell-based; set-up: endogenous in cells; host or cells: IGROV1 CR
Method: IGROV1 cells were treated with CH3 in the absence and presence of the 26S proteasome inhibitor MG132 (Benzyl N-[(2S)-4-methyl-1-[[(2S)-4-methyl-1-[[(2S)-4-methyl-1-oxopentan-2-yl]amino]-1-oxopentan-2-yl]amino]-1-oxopentan-2-yl]carbamate). […] Protein degradation through the proteasome requires conjugation of one or more ubiquitin molecules to the target. To address whether And-1 was modified by ubiquitin in IGROV1 cells treated with CH3, And-1 protein was immunoprecipitated and probed with anti-ubiquitin antibody.

[6] = tested on: NCI 60 tumor cell lines; assay: NCI 60 tumor cell lines growth assay; assay type: cell-based
Method: To test this hypothesis, inhibition of CH3 on cancer cells was evaluated by using NCI 60 tumor cell lines.

Compound: OB1OCc2cc(/C=C/c3ccc(Cl)c(Cl)c3)ccc21 [CH3]
- And-1 expression in tumor (IHC) ([1]; IGROV1 xenograft): inhibited And-1 expression
- apoptosis in tumor (cleaved caspase-3 IHC) ([1]; IGROV1 xenograft): induced apoptosis in tumor
- tumor growth ([1]; IGROV1 xenograft, 20 or 40 mg/kg intraperitoneally, three weeks): significantly reduced tumor growth
- systemic toxicity (body weight, H&E staining of heart, liver, kidney and lung) ([1]; mouse, in vivo): systemic toxicity or obvious side effects were not observed
- thermal stabilization of And-1 protein at higher temperatures [2]: stabilized
- And-1 protein levels ([3]; 5 μM for 48 hours, without MG132): reduced And-1 protein levels
- pIC50 ([3]; immunoblot, read-out: IC50 for inhibition of And-1 expression): 5.68
- synergy with cisplatin on clonogenic capacity [4]: synergy with cisplatin to reduce clonogenic capacity
- ubiquitinated And-1 bands [5]: increased
- cancer cell growth inhibition ([6]; 0.01-100 μM, 60 tumor cell lines): inhibited cancer cell growth in all 60 tumor cell lines in a dose dependent manner
- mean growth percentage ([6]; one dose assay, 10 μM, against 60 tumor cell lines): 1.84%

Reference: patent publication US12258360B2, “Compositions and methods for treatment of anticancer-drug resistant cancers” (THE GEORGE WASHINGTON UNIVERSITY, priority 2020, dated 2025)
